Values after ≈ are worked out from the molar mass of the structure shown. Like-named read-outs stand apart in the source and are kept apart here.
Experiments:
[1] = test system: participants with symptomatic oHCM; test: EXPLORER-HCM Phase 3 double blind, randomized, placebo controlled study; type: in vivo, human
Description: A subset of participants consented to participate in a CMR substudy at selected sites. Randomization was stratified according to NYHA functional classification (II or III), current treatment with β-blocker (yes or no), planned type of ergometer used during the study (treadmill or exercise bicycle), and consent for the CMR substudy (yes or no).
The study included 3 periods carried out according to the following design:
1) Screening period (Day −35 to Day −1): Participants will undergo a variety of general, cardiopulmonary, laboratory, symptom, and PRO assessments over 1 to 2 days in order to assess eligibility. Key Screening tests include electrocardiogram (ECG); transthoracic echocardiography (TTE) conducted at rest, with Valsalva maneuver, and post-exercise; as well as cardiopulmonary exercise testing (CPET). The following screening assessments may be repeated, as long as within the 35-days screening window: blood tests, ECG, and/or TTE. Repeat assessments are allowed if central core labs require a repeat submission due to quality and in order to better assess inclusion/exclusion values. Participants who screen fail may be considered for rescreening based on the investigator's discretion, taking into consideration the reason(s) for screen fail. One attempt at rescreening will be allowed, and all procedures must be repeated.
2) Double-blind treatment period (Day 1 [randomization] to Week 30/end of treatment [EOT]): The double-blind treatment period will include a two-step dose titration scheme designed to achieve safe and effective dosing for each participant based on their own response parameters. […] Subsequently, assessments including ECG, PK (trough plasma concentrations), and TTE will be performed at each of 7 study visits, beginning at Week 4, and read by core laboratories. At Week 8 and Week 14, the dose may be increased, decreased, or remain unchanged based upon results of Week 6 and Week 12 assessments, respectively, and based primarily on measurements of provoked left ventricular outflow tract (LVOT) gradient and bounded by a target plasma concentration (PK) range and clinical tolerability (LVEF). At Week 8, the dose may be increased to a maximum daily dose of 10 mg (ie, increase from 5 mg QD to 10 mg QD), and at Week 14 to a maximum daily dose of 15 mg (ie, increase from 10 mg QD to 15 mg QD). Dose increases are designed to be step wise and are not allowed to skip doses (eg, from 5 mg to 15 mg).
At Week 30/EOT, participants will complete CPET and post-exercise TTE. For any participants permanently discontinuing treatment prior to Week 30, an early termination (ET) visit should be conducted as soon as possible, including CPET and post-exercise TTE. Participants with ET will also be encouraged to complete all remaining study visits and assessments, including the Week 30 visit.
3) Posttreatment follow-up period (Week 30/EOT to Week 38/end of study [EOS]): When double-blind treatment ends at Week 30, participants will be contacted by phone at Week 34 and return to the site at Week 38 for an EOS visit. At the EOS visit, specified assessments will be repeated. This posttreatment follow-up period applies only to participants who are receiving study drug after Week 22.
To maintain safety throughout the double-blind treatment period, a clinic visit will occur every 2 to 4 weeks, beginning at Week 4 for an initial evaluation of clinical tolerability and safety. Clinic visits will include but are not limited to clinical evaluation (symptoms, PRO evaluations, adverse event [AE]/serious adverse event [SAE] assessment), ECGs, PK sample, TTEs, and laboratory assessments. Results of TTE performed by study site sonographers at each scheduled visit following randomization should be kept blinded to the investigator and other study site personnel. […]

[2] = Solubility estimates at ambient temperature; type: physicochemical; conditions: thermodynamic from solid, Form A (Lot 2-4), read-out: Solubility (estimate)
Method: Solubilities were calculated based on the total solvent used to give a solution; actual solubilities may be greater because of the volume of solvent portions utilized or a slow rate of dissolution. […] If dissolution occurred at the first aliquot, the value was reported as “>”.
Solubility estimates at ambient temperature were performed in 25 solvents and solvent systems using Form A (Lot 2-4) (Table 13.3).

[3] = Mavacamten arm (n = 123), baseline to Week 30
[4] = Mavacamten arm, defined as NYHA Class I and all LVOT gradients <30 mmHg
[5] = change from baseline to Week 30, p <0.0001

CC(C)n1c(=O)cc(N[C@@H](C)c2ccccc2)[nH]c1=O [mavacamten, (S)-3-Isopropyl-6-((1-phenylethyl)amino)pyrimidine-2, 4(1H,3H)-dione]
subjects with severe TEAEs ([1]; 7 subjects, placebo 10.2%): 5.7%
Response Type 1 (pVO2 ≥1.5 ml/kg/min and NYHA improved ≥1), n (%) ([1]; Mavacamten (n = 123)): 41 (33.3) n (%)
Response Type 2 (pVO2 ≥3.0 ml/kg/min and no worsening NYHA), n (%) ([1]; Mavacamten (n = 123)): 29 (23.6) n (%)
pVO2 ≥3.0 and NYHA ≥1, n (%) ([1]; Mavacamten (n = 123)): 25 (20.3) n (%)
Met Composite Functional Response, either type, n (%) ([1]; Mavacamten (n = 123), Week 30): 45 (36.6) n (%)
Absence of MR (mitral regurgitation), (%) ([1]; Mavacamten arm): (9.0) %
Absence of MR (mitral regurgitation), n/assessible ([1]; Mavacamten arm): 10/111
Absence of SAM (systolic anterior motion of mitral valve), (%) ([1]; Mavacamten arm): (80.9) %
Absence of SAM (systolic anterior motion of mitral valve), n/assessible ([1]; Mavacamten arm): 76/94
participants with a temporary discontinuation associated with reduced ejection fraction ([1]; Mavacamten arm): 3
HCMSQ-SoB score, change from baseline, mean (SD) [1, 3]: −2.82 (2.7)
KCCQ-CSS, change from baseline, mean (SD) [1, 3]: 13.6 (14.4)
KCCQ-OSS, change from baseline, mean (SD) [1, 3]: 14.87 (15.8)
KCCQ-total symptom score, change from baseline, mean (SD) [1, 3]: 12.44 (15.0)
NYHA improved ≥1 Class, n (%) [1, 3]: 80 (65) n (%)
Post-exercise LVOT peak gradient, change from baseline, mean (SD) [1, 3]: −47.2 (40.3) mmHg
pVO2, change from baseline, mean (SD) [1, 3]: 1.4 (3.1) mL/kg/min
Post-exercise LVOT peak gradient < 30 mmHg, (%) ([1]; Mavacamten arm, Week 30): (56.6) %
Post-exercise LVOT peak gradient < 30 mmHg, n/assessible ([1]; Mavacamten arm, Week 30): 64/113
Post-exercise LVOT peak gradient < 50 mmHg, (%) ([1]; Mavacamten arm, Week 30): (74.3) %
Post-exercise LVOT peak gradient < 50 mmHg, n/assessible ([1]; Mavacamten arm, Week 30): 75/101
Complete Response, (%) [1, 4]: (27.4) %
Complete Response, n/assessible [1, 4]: 32/117
Met Composite Functional Response, either type ([1]; Mavacamten vs Placebo): 19.4
Response Type 1 ([1]; Mavacamten vs Placebo): 19.3
Response Type 2 ([1]; Mavacamten vs Placebo): 12.6
pVO2 ≥3.0 and NYHA ≥1 ([1]; Mavacamten vs Placebo): 12.5
Complete Response, Mava vs Placebo Difference (95% CI) ([1]; NYHA Class I and all LVOT gradients <30 mmHg, p <0.0001): 26.6 (18.3, 34.8)
NT-proBNP Mava vs Placebo Model Est RR ([1]; Week 30, 95% CI (0.169, 0.241), p <0.0001): 0.202
hs-cTnI Mava vs Placebo Model Est RR ([1]; Week 30, 95% CI (0.500, 0.693), p <0.0001): 0.589
Post-exercise LVOT peak gradient < 30 mmHg, Mava vs Placebo Difference (95% CI) ([1]; Week 30, p <0.0001): 49.6 (39.3, 59.8)
Post-exercise LVOT peak gradient < 50 mmHg, Mava vs Placebo Difference (95% CI) ([1]; Week 30, p <0.0001): 53.5 (42.0. 65.0)
NYHA improved ≥1 Class, Mavacamten vs Placebo Difference (95% CI) ([1]; baseline to Week 30, p <0.0001): 33.8 (22.1, 45.4) <0.0001
KCCQ-total symptom score, Mavacamten vs Placebo Difference (95% CI) ([1]; change from baseline to Week 30, p 0.0002): 7.60 (3.68, 11.52) 0.0002
pVO2, Mavacamten vs Placebo Difference (95% CI) ([1]; change from baseline to Week 30, p 0.0006): 1.35 (0.580, 2.116) 0.0006 mL/kg/min
HCMSQ-SoB score, Mavacamten vs Placebo Difference (95% CI) [1, 5]: −1.8 (−2.402, −1.196) <0.0001
KCCQ-CSS, Mavacamten vs Placebo Difference (95% CI) [1, 5]: 9.1 (5.46, 12.66) <0.0001
KCCQ-OSS, Mavacamten vs Placebo Difference (95% CI) [1, 5]: 9.12 (5.46, 12.80) <0.0001
Post-exercise LVOT peak gradient, Mavacamten vs Placebo Difference (95% CI) [1, 5]: −35.5 (−43.1, −27.9) <0.0001 mmHg
Tolerability ([1]; doses ranging from 2.5 to 15 mg): well tolerated
patients meeting the primary efficacy endpoint (composite functional response) ([1]; intent-to-treat, 45 of the 123 patients): 36.6%
permanent treatment discontinuations due to adverse events ([1]; on mavacamten (atrial fibrillation, syncope)): 2
Absence of MR, Mava vs Placebo Difference (95% CI) ([1]; p 0.0006): 9.0 (3.7, 14.3)
Absence of SAM, Mava vs Placebo Difference (95% CI) ([1]; p <0.0001): 46.9 (34.5, 59.2)
temporary discontinuations ([1]; patients on mavacamten (all at a 5 mg dose)): 8
patients achieving a complete response (NYHA 1 and all LVOT gradients below 30 mmHg) ([1]; placebo 1%): 27%
patients with cardiac SAEs ([1]; placebo 4): 4
patients achieving a post-exercise LVOT peak gradient below 30 mmHg ([1]; placebo 7%): 57%
number of SAEs ([1]; placebo 20): 12
patients achieving NYHA class I status ([1]; placebo 21%): 65%
subjects experiencing SAEs ([1]; through week 30, 10 subjects): 8.1%
solubility ([2]; aqueous with cosolvent or surfactant or cyclodextrin, DMSO:water (50:50)): < 1 mg/mL
solubility ([2]; aqueous with cosolvent or surfactant or cyclodextrin, MeOH:water (50:50)): < 1 mg/mL
solubility ([2]; organic solvent or mixture, Anisole): < 1 mg/mL
solubility ([2]; organic solvent or mixture, DMF:CHCl3 (90:10)): ~27 mg/mL (≈ 98.8 mM)
solubility ([2]; organic solvent or mixture, DMF:EtOAc (80:20)): ~27 mg/mL (≈ 98.8 mM)
solubility ([2]; organic solvent or mixture, DMF:EtOH (75:25)): ~28 mg/mL (≈ 102 mM)
solubility ([2]; organic solvent or mixture, DMF:anisole (90:10)): ~28 mg/mL (≈ 102 mM)
solubility ([2]; organic solvent or mixture, DMF:iPrOH (80:20)): ~43 mg/mL (≈ 157 mM)
solubility ([2]; organic solvent or mixture, DMF:toluene (90:10)): ~42 mg/mL (≈ 154 mM)
solubility ([2]; organic solvent or mixture, DMSO:p-dioxane (80:20)): > 42 mg/mL
solubility ([2]; organic solvent or mixture, DMSO:water (90:10)): ~5 mg/mL (≈ 18.3 mM)
solubility ([2]; organic solvent or mixture, HFIPA): > 60 mg/mL
solubility ([2]; organic solvent or mixture, HFIPA:water (90:10)): ~28 mg/mL (≈ 102 mM)
solubility ([2]; organic solvent or mixture, MIBK): < 1 mg/mL
solubility ([2]; organic solvent or mixture, MeOH): ~2 mg/mL (≈ 7.32 mM)
solubility ([2]; organic solvent or mixture, MeOH:water (90:10)): < 1 mg/mL
solubility ([2]; organic solvent or mixture, NMP:EtOAc (80:20)): ~45 mg/mL (≈ 165 mM)
solubility ([2]; organic solvent or mixture, NMP:MeOH (75:25)): ~38 mg/mL (≈ 139 mM)
solubility ([2]; organic solvent or mixture, NMP:toluene (80:20)): ~27 mg/mL (≈ 98.8 mM)
solubility ([2]; organic solvent or mixture, NMP:water (90:10)): ~23 mg/mL (≈ 84.1 mM)
solubility ([2]; organic solvent or mixture, THF): ~2 mg/mL (≈ 7.32 mM)
solubility ([2]; organic solvent or mixture, THF:water (90:10)): ~13 mg/mL (≈ 47.6 mM)
solubility ([2]; organic solvent or mixture, iPrOH): < 1 mg/mL
solubility ([2]; organic solvent or mixture, nitromethane): < 1 mg/mL
solubility ([2]; organic solvent or mixture, toluene): < 1 mg/mL
